The test deals with human PDE2A1 (Homo sapiens (Human), UniProt O00408). In words: PDE selectivity IMAP FP assay, human PDE2A1. Particulars: Human PDE2; Lab B; read-out: Human PDE2 Ki (nM) Lab B. Format: biochemical. In short, it runs like this: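 IMAP fluorescence polarization assay; PDE2 substrate 50 nM FAM-cAMP containing 1000 nM cGMP, enzyme diluted for 20% substrate conversion, in 10 mM Tris HCl pH 7.2, 10 mM MgCl2, 1 mM DTT. Reaction 60 min at room temperature, stopped with IMAP binding solution; polarization read after 1 h. Ki reported.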
human PDE2A1, sequence (O00408 other isoform, or with tags, fused parts or gaps): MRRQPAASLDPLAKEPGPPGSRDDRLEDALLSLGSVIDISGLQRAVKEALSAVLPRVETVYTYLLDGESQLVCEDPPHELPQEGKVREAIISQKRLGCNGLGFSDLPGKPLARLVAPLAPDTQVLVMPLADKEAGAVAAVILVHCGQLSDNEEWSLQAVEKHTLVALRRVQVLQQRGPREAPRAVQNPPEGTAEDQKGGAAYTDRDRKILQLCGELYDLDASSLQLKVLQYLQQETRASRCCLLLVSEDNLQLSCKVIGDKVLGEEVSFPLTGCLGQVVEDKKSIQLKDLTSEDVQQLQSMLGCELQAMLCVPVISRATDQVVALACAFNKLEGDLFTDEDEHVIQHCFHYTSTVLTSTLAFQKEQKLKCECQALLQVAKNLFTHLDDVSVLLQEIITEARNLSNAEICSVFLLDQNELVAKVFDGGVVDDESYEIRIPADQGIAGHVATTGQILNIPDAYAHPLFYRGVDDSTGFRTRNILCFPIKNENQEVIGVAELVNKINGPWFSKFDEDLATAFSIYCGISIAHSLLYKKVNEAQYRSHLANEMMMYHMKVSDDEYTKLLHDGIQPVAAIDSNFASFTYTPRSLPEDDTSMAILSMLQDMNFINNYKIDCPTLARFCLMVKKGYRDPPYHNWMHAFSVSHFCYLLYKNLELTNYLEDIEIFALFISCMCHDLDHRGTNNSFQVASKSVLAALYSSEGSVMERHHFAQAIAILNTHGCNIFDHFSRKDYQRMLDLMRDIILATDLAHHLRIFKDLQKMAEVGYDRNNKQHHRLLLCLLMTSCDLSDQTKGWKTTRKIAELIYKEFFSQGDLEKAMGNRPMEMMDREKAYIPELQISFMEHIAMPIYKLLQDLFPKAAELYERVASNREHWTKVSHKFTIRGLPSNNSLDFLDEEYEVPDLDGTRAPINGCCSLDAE
For the compound `CC(c1ccc(OC(F)(F)F)c(Cl)c1)n1nc(C(F)(F)F)c2c(=O)[nH]c(O)nc21` (single isomer, unassigned) [Example 322, (S)- or (R)-1-(1-(3-Chloro-4-(trifluoromethoxy)phenyl)ethyl)-6-hydroxy-3-(trifluoromethyl)-1H-pyrazolo[3,4-d]pyrimidin-4(5H)-one], the Ki (as a rule, a measure of affinity in units of concentration, obtained from inhibition or displacement) amounted to 9.3 nM.

For `CC(c1ccc(OC(F)F)c(F)c1)n1nc(C(F)(F)F)c2c(=O)[nH]c(O)nc21` (single isomer, unassigned) [Example 323, (R)- or (S)-1-(1-(4-(Difluoromethoxy)-3-fluorophenyl)ethyl)-6-hydroxy-3-(trifluoromethyl)-1H-pyrazolo[3,4-d]pyrimidin-4(5H)-one], the Ki stood at 304 nM.

As to `CC(c1ccc(OC(F)F)c(F)c1)n1nc(C(F)(F)F)c2c(=O)[nH]c(O)nc21` (single isomer, unassigned) [Example 324, (S)- or (R)-1-(1-(4-(Difluoromethoxy)-3-fluorophenyl)ethyl)-6-hydroxy-3-(trifluoromethyl)-1H-pyrazolo[3,4-d]pyrimidin-4(5H)-one], the Ki is 6.8 nM.

In the case of `CC(c1ccc(OC(F)F)c(Cl)c1)n1nc(C(F)(F)F)c2c(=O)[nH]c(O)nc21` (single isomer, unassigned) [Example 325, (R)- or (S)-1-(1-(3-Chloro-4-(difluoromethoxy)phenyl)ethyl)-6-hydroxy-3-(trifluoromethyl)-1H-pyrazolo[3,4-d]pyrimidin-4(5H)-one], the Ki turned out to be 529 nM.

As for `CC(c1ccc(OC(F)F)c(Cl)c1)n1nc(C(F)(F)F)c2c(=O)[nH]c(O)nc21` (single isomer, unassigned) [Example 326, (S)- or (R)-1-(1-(3-Chloro-4-(difluoromethoxy)phenyl)ethyl)-6-hydroxy-3-(trifluoromethyl)-1H-pyrazolo[3,4-d]pyrimidin-4(5H)-one], the Ki was found to be 16 nM.

With `CC(c1ccc(C(F)(F)F)c(Cl)c1)n1nc(C(F)(F)F)c2c(=O)[nH]c(O)nc21` (single isomer, unassigned) [Example 327, (R)- or (S)-1-(1-(3-Chloro-4-(trifluoromethyl)phenyl)ethyl)-6-hydroxy-3-(trifluoromethyl)-1H-pyrazolo[3,4-d]pyrimidin-4(5H)-one], the Ki was determined as 382 nM.

Take `CC(c1ccc(C(F)(F)F)c(Cl)c1)n1nc(C(F)(F)F)c2c(=O)[nH]c(O)nc21` (single isomer, unassigned) [Example 328, (S)- or (R)-1-(1-(3-Chloro-4-(trifluoromethyl)phenyl)ethyl)-6-hydroxy-3-(trifluoromethyl)-1H-pyrazolo[3,4-d]pyrimidin-4(5H)-one]: the Ki amounted to 3 nM.

As to `CCC(c1ccc(C(F)(F)F)cc1)n1nc(C(F)(F)F)c2c(=O)[nH]c(O)nc21` (single isomer, unassigned) [Example 331, (R)- or (S)-6-Hydroxy-3-(trifluoromethyl)-1-(1-(4-(trifluoromethyl)phenyl)propyl)-1H-pyrazolo[3,4-d]pyrimidin-4(5H)-one], the Ki was found to be 346 nM.

For `CCC(c1ccc(C(F)(F)F)cc1)n1nc(C(F)(F)F)c2c(=O)[nH]c(O)nc21` (single isomer, unassigned) [Example 332, (S)- or (R)-6-hydroxy-3-(trifluoromethyl)-1-(1-(4-(trifluoromethyl)phenyl)propyl)-1H-pyrazolo[3,4-d]pyrimidin-4(5H)-one], the Ki came to 3.3 nM.

With `CC(C)C(c1ccc(C(F)(F)F)cc1)n1nc(C(F)(F)F)c2c(=O)[nH]c(O)nc21` (single isomer, unassigned) [Example 333, (R)- or (S)-6-Hydroxy-1-(2-methyl-1-(4-(trifluoromethyl)phenyl)propyl)-3-(trifluoromethyl)-1H-pyrazolo[3,4-d]pyrimidin-4(5H)-one], the Ki worked out at 134 nM.

`CC(C)C(c1ccc(C(F)(F)F)cc1)n1nc(C(F)(F)F)c2c(=O)[nH]c(O)nc21` (single isomer, unassigned) [Example 334, (S)- or (R)-6-Hydroxy-1-(2-methyl-1-(4-(trifluoromethyl)phenyl)propyl)-3-(trifluoromethyl)-1H-pyrazolo[3,4-d]pyrimidin-4(5H)-one]: the Ki came out at 2.3 nM.

As to `O=c1[nH]c(O)nc2c1c(C(F)(F)F)nn2C(c1ccc(C(F)(F)F)cc1)C1CC1` (single isomer, unassigned) [Example 335, (R)- or (S)-1-(Cyclopropyl(4-(trifluoromethyl)phenyl)methyl)-6-hydroxy-3-(trifluoromethyl)-1H-pyrazolo[3,4-d]pyrimidin-4(5H)-one], the Ki was 137 nM.

As to `O=c1[nH]c(O)nc2c1c(C(F)(F)F)nn2C(c1ccc(C(F)(F)F)cc1)C1CC1` (single isomer, unassigned) [Example 336, (S)- or (R)-1-(Cyclopropyl(4-(trifluoromethyl)phenyl)methyl)-6-hydroxy-3-(trifluoromethyl)-1H-pyrazolo[3,4-d]pyrimidin-4(5H)-one], the Ki was 3.2 nM.

Consider `CC(C)(C)C(c1ccc(C(F)(F)F)cc1)n1nc(C(F)(F)F)c2c(=O)[nH]c(O)nc21` (single isomer, unassigned) [Example 337, (R)- or (S)-1-(2,2-Dimethyl-1-(4-(trifluoromethyl)phenyl)propyl)-6-hydroxy-3-(trifluoromethyl)-1H-pyrazolo[3,4-d]pyrimidin-4(5H)-one], for which the Ki amounted to 2360 nM.

For the compound `CC(C)(C)C(c1ccc(C(F)(F)F)cc1)n1nc(C(F)(F)F)c2c(=O)[nH]c(O)nc21` (single isomer, unassigned) [Example 338, (S)- or (R)-1-(2,2-Dimethyl-1-(4-(trifluoromethyl)phenyl)propyl)-6-hydroxy-3-(trifluoromethyl)-1H-pyrazolo[3,4-d]pyrimidin-4(5H)-one], the Ki was determined as 373 nM.

Consider `CCC(c1ccc(OC(F)F)c(F)c1)n1nc(CF)c2c(=O)[nH]c(N(C)C)nc21` (single isomer, unassigned) [Example 340, (R)- or (S)-1-(1-(4-(Difluoromethoxy)-3-fluorophenyl)propyl)-6-(dimethylamino)-3-(fluoromethyl)-1H-pyrazolo[3,4-d]pyrimidin-4(5H)-one], for which the Ki was 0.58 nM.

On to `CCC(c1ccc(OC(F)F)c(F)c1)n1nc(CF)c2c(=O)[nH]c(N(C)C)nc21` (single isomer, unassigned) [Example 341, (S)- or (R)-1-(1-(4-(Difluoromethoxy)-3-fluorophenyl)propyl)-6-(dimethylamino)-3-(fluoromethyl)-1H-pyrazolo[3,4-d]pyrimidin-4(5H)-one], for which the Ki is 0.15 nM.

As to `CCC(c1ccc(OC(F)F)cc1F)n1nc(CF)c2c(=O)[nH]c(N(C)C)nc21` (single isomer, unassigned) [Example 342, (R)- or (S)-1-(1-(4-(Difluoromethoxy)-2-fluorophenyl)propyl)-6-(dimethylamino)-3-(fluoromethyl)-1H-pyrazolo[3,4-d]pyrimidin-4(5H)-one], the Ki came out at 0.1 nM.

Take `CCC(c1ccc(OC(F)F)cc1F)n1nc(CF)c2c(=O)[nH]c(N(C)C)nc21` (single isomer, unassigned) [Example 343, (S)- or (R)-1-(1-(4-(Difluoromethoxy)-2-fluorophenyl)propyl)-6-(dimethylamino)-3-(fluoromethyl)-1H-pyrazolo[3,4-d]pyrimidin-4(5H)-one]: the Ki was 1.7 nM.

Values taken from patent US10174037B2, “Dihydropyrazolopyrimidinone compounds as PDE2 inhibitors” (Merck Sharp & Dohme Corp., priority 2015, dated 2019).
